In PubChem BioAssay (NCI):
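All cell lines were grown in 96-well plates and treated with compound for 48 hours. GI50 is the concentration that inhibits growth by half. TGI: concentration producing complete growth inhibition.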

Legend:
Experiment in all cases: growth of human tumour cells (NCI), 48 h
HT29 colon = test system: HT29 colon
SNB-19 CNS = test system: SNB-19 CNS
NCI-H522 lung = test system: NCI-H522 lung
UACC-257 melanoma = test system: UACC-257 melanoma
MOLT-4 leukemia = test system: MOLT-4 leukemia
T-47D breast = test system: T-47D breast
HCT-116 colon = test system: HCT-116 colon
DU-145 prostate = test system: DU-145 prostate
MALME-3M melanoma = test system: MALME-3M melanoma
NCI/ADR-RES ovarian = test system: NCI/ADR-RES ovarian
BT-549 breast = test system: BT-549 breast
SNB-75 CNS = test system: SNB-75 CNS
EKVX NSCLC = test system: EKVX NSCLC
SW-620 colon = test system: SW-620 colon
UO-31 renal = test system: UO-31 renal
COLO 205 colon = test system: COLO 205 colon
MDA-MB-231 breast = test system: MDA-MB-231 breast
CCRF-CEM leukemia = test system: CCRF-CEM leukemia
SK-MEL-5 melanoma = test system: SK-MEL-5 melanoma
OVCAR-4 ovarian = test system: OVCAR-4 ovarian
786-0 renal = test system: 786-0 renal
IGROV1 ovarian = test system: IGROV1 ovarian
SN12C renal = test system: SN12C renal
OVCAR-8 ovarian = test system: OVCAR-8 ovarian
UACC-62 melanoma = test system: UACC-62 melanoma
SK-MEL-2 melanoma = test system: SK-MEL-2 melanoma
OVCAR-3 ovarian = test system: OVCAR-3 ovarian
MCF7 breast = test system: MCF7 breast
K-562 leukemia = test system: K-562 leukemia
LOX IMVI melanoma = test system: LOX IMVI melanoma
PC-3 prostate = test system: PC-3 prostate
KM12 colon = test system: KM12 colon
SK-OV-3 ovarian = test system: SK-OV-3 ovarian
TK-10 renal = test system: TK-10 renal
SR leukemia = test system: SR leukemia
NCI-H226 lung = test system: NCI-H226 lung
HCT-15 colon = test system: HCT-15 colon
U251 CNS = test system: U251 CNS
HL-60(TB) leukemia = test system: HL-60(TB) leukemia
A549 NSCLC = test system: A549 NSCLC
SF-295 CNS = test system: SF-295 CNS
OVCAR-5 ovarian = test system: OVCAR-5 ovarian
RXF 393 renal = test system: RXF 393 renal
ACHN renal = test system: ACHN renal
A498 renal = test system: A498 renal
MDA-MB-435 = test system: MDA-MB-435
SF-268 CNS = test system: SF-268 CNS
M14 melanoma = test system: M14 melanoma
HOP-92 NSCLC = test system: HOP-92 NSCLC
SK-MEL-28 melanoma = test system: SK-MEL-28 melanoma
HCC-2998 colon = test system: HCC-2998 colon
SF-539 CNS = test system: SF-539 CNS
HOP-62 NSCLC = test system: HOP-62 NSCLC
NCI-H460 lung = test system: NCI-H460 lung
RPMI-8226 leukemia = test system: RPMI-8226 leukemia
HS 578T breast = test system: HS 578T breast
CAKI-1 renal = test system: CAKI-1 renal

Work on `Cc1cc2nc3c4cc(Cl)ccc4n(CC(=S)NCCN(C)C)c3nc2cc1C` yielded a GI50 (HT29 colon) of 1.78 µM, a TGI (HT29 colon) of 3.36 µM and a GI50 (SNB-19 CNS) of 5.87 µM. For the same molecule, the TGI (SNB-19 CNS) was 19.9 µM, the GI50 (NCI-H522 lung) was 1.72 µM and the TGI (NCI-H522 lung) was 3.47 µM. It also gave a GI50 (UACC-257 melanoma) of 3.29 µM, a TGI (UACC-257 melanoma) of 11.9 µM and a GI50 (MOLT-4 leukemia) of 1.97 µM. The TGI (MOLT-4 leukemia) was 4.29 µM, the GI50 (T-47D breast) was 5.11 µM and the TGI (T-47D breast) was 20.2 µM. For the same molecule, the GI50 (HCT-116 colon) was 1.73 µM, the TGI (HCT-116 colon) was 3.17 µM and the GI50 (DU-145 prostate) was 2.64 µM. For the same molecule, the TGI (DU-145 prostate) was 6.99 µM, the GI50 (MALME-3M melanoma) was 1.86 µM and the TGI (MALME-3M melanoma) was 4.16 µM. The GI50 (NCI/ADR-RES ovarian) was 1.87 µM, the TGI (NCI/ADR-RES ovarian) was 3.7 µM and the GI50 (BT-549 breast) was 13.3 µM. The TGI (BT-549 breast) was 26.5 µM, the GI50 (SNB-75 CNS) was 11.2 µM and the TGI (SNB-75 CNS) was 24.7 µM. The GI50 (EKVX NSCLC) was 3.07 µM, the TGI (EKVX NSCLC) was 11.8 µM and the GI50 (SW-620 colon) was 1.68 µM. For the same molecule, the TGI (SW-620 colon) was 3.15 µM, the GI50 (UO-31 renal) was 1.07 µM and the TGI (UO-31 renal) was 2.53 µM. The GI50 (COLO 205 colon) was 1.78 µM, the TGI (COLO 205 colon) was 3.49 µM and the GI50 (MDA-MB-231 breast) was 1.82 µM. For the same molecule, the TGI (MDA-MB-231 breast) was 3.63 µM, the GI50 (CCRF-CEM leukemia) was 2.36 µM and the TGI (CCRF-CEM leukemia) was 6.17 µM. For the same molecule, the GI50 (SK-MEL-5 melanoma) was 4.09 µM, the TGI (SK-MEL-5 melanoma) was 14 µM and the GI50 (OVCAR-4 ovarian) was 2.81 µM. The TGI (OVCAR-4 ovarian) was 10.2 µM, the GI50 (786-0 renal) was 1.64 µM and the TGI (786-0 renal) was 3.2 µM. It also gave a GI50 (IGROV1 ovarian) of 3.53 µM, a TGI (IGROV1 ovarian) of 15.6 µM and a GI50 (SN12C renal) of 2.07 µM. For the same molecule, the TGI (SN12C renal) was 4.97 µM, the GI50 (OVCAR-8 ovarian) was 1.75 µM and the TGI (OVCAR-8 ovarian) was 3.39 µM. For the same molecule, the GI50 (UACC-62 melanoma) was 1.81 µM, the TGI (UACC-62 melanoma) was 3.62 µM and the GI50 (SK-MEL-2 melanoma) was 14.2 µM. For the same molecule, the TGI (SK-MEL-2 melanoma) was 27.8 µM, the GI50 (OVCAR-3 ovarian) was 2.05 µM and the TGI (OVCAR-3 ovarian) was 4.67 µM. For the same molecule, the GI50 (MCF7 breast) was 1.19 µM, the TGI (MCF7 breast) was 2.51 µM and the GI50 (K-562 leukemia) was 2.07 µM. It also gave a TGI (K-562 leukemia) of 5.21 µM, a GI50 (LOX IMVI melanoma) of 0.241 µM and a TGI (LOX IMVI melanoma) of 1.77 µM. For the same molecule, the GI50 (PC-3 prostate) was 1.83 µM, the TGI (PC-3 prostate) was 4.84 µM and the GI50 (KM12 colon) was 2.73 µM. For the same molecule, the TGI (KM12 colon) was 8.29 µM, the GI50 (SK-OV-3 ovarian) was 11.8 µM and the TGI (SK-OV-3 ovarian) was 24.1 µM. The GI50 (TK-10 renal) was 11.4 µM, the TGI (TK-10 renal) was 24.2 µM and the GI50 (SR leukemia) was 2.46 µM. For the same molecule, the TGI (SR leukemia) was 6.23 µM, the GI50 (NCI-H226 lung) was 10.5 µM and the TGI (NCI-H226 lung) was 24.9 µM. It also gave a GI50 (HCT-15 colon) of 1.75 µM, a TGI (HCT-15 colon) of 3.17 µM and a GI50 (U251 CNS) of 1.71 µM. The TGI (U251 CNS) was 3.17 µM, the GI50 (HL-60(TB) leukemia) was 1.87 µM and the TGI (HL-60(TB) leukemia) was 3.99 µM. For the same molecule, the GI50 (A549 NSCLC) was 1.75 µM, the TGI (A549 NSCLC) was 3.52 µM and the GI50 (SF-295 CNS) was 5.56 µM. For the same molecule, the TGI (SF-295 CNS) was 18.2 µM, the GI50 (OVCAR-5 ovarian) was 4.87 µM and the TGI (OVCAR-5 ovarian) was 17.6 µM. The GI50 (RXF 393 renal) was 3.56 µM, the TGI (RXF 393 renal) was 14.4 µM and the GI50 (ACHN renal) was 1.6 µM. It also gave a TGI (ACHN renal) of 2.95 µM, a GI50 (A498 renal) of 17.1 µM and a TGI (A498 renal) of 31.3 µM. It also gave a GI50 (MDA-MB-435) of 1.89 µM, a TGI (MDA-MB-435) of 3.53 µM and a GI50 (SF-268 CNS) of 5.56 µM. For the same molecule, the TGI (SF-268 CNS) was 21.1 µM, the GI50 (M14 melanoma) was 1.64 µM and the TGI (M14 melanoma) was 3.12 µM. The GI50 (HOP-92 NSCLC) was 1.79 µM, the TGI (HOP-92 NSCLC) was 8.06 µM and the GI50 (SK-MEL-28 melanoma) was 1.81 µM. It also gave a TGI (SK-MEL-28 melanoma) of 3.43 µM, a GI50 (HCC-2998 colon) of 1.66 µM and a TGI (HCC-2998 colon) of 3.09 µM. For the same molecule, the GI50 (SF-539 CNS) was 3.33 µM, the TGI (SF-539 CNS) was 12.2 µM and the GI50 (HOP-62 NSCLC) was 6.68 µM. It also gave a TGI (HOP-62 NSCLC) of 21.6 µM, a GI50 (NCI-H460 lung) of 1.81 µM and a TGI (NCI-H460 lung) of 3.35 µM. For the same molecule, the GI50 (RPMI-8226 leukemia) was 2.75 µM, the TGI (RPMI-8226 leukemia) was 7.49 µM and the GI50 (HS 578T breast) was 11 µM. It also gave a TGI (HS 578T breast) of 30.8 µM, a GI50 (CAKI-1 renal) of 2.84 µM and a TGI (CAKI-1 renal) of 14.4 µM.
